System: behavior stereotypes on rats (masticatory, licking, or gnawing movements)
Assay: Stereotype-releasing effectiveness on rats 1 hour after i.p. pretreatment (dopamine agonistic action)
Assay type: in vivo
Settings: probit analysis, n = 8; for ED50 (effective dose, stereotype-releasing effectiveness): 60th-62nd min p.i.
Description: The dopamine agonistic action was determined according to Horowski, R. and Wachtel, H. Eur. J. Pharmaz. col. 36: 373-383, 1976. One hour after i.p. pretreatment with test substance or vehicle, the presence of behavior stereotypes on rats (masticatory, licking, or gnawing movements) was determined for 2 minutes (60th-62nd min. p.i.).
Stereotype-releasing effectiveness on rats 1 hour
after i.p. pretreatment. Effective doses (ED50) with 95%
confidence limit were determined with the help of probit

SMILES | ED50 (effective dose, stereotype-releasing effectiveness) | 95% Confidence Limit of ED50
CCCN1CC(NC(=S)SC)C[C@@H]2c3cccc4[nH]c(C)c(c34)C[C@H]21 (stereo partly shown) [A, N(2-methyl-6-n-propyl-8ergolinyl)-dithiocarbamic acid methyl ester] | 0.080 | 0.010-0.170
CCCN1CC(NC=S)C[C@@H]2c3cccc4[nH]c(C)c(c34)C[C@H]21 (stereo partly shown) [B, N(2-methyl-6-n-propyl-8ergolinyl)-thioformamide] | 0.050 | 0.034-0.079

— patent US5547958A, “N-(8α-ergolinyl)-amides” (Schering Aktiengesellschaft, priority 1989, dated 1996)
